Values after ≈ are worked out from the molar mass of the structure shown. Where two headings read alike, the source gives them in different places. Residues, ends and D or L forms follow the SMILES beside them. No end group written: not given here.
Tests used:
[1] = tested on: A. baumannii ATCC 19606; format: cell-based, Acinetobacter baumannii
Description: (§1) Inhibition of bacterial growth was determined using resazurin as a marker for cell viability. Resazurin was added to each well, at 0.001% final concentration, and plates incubated at 37° C. for 2 h. Fluorescence intensity was measured, using F (top read), ex 560/10 nm, em 590/10 nm, using a Tecan M1000 Pro monochromator plate reader.

[2] = Cytotoxicity (resazurin) assay
Method in brief: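 HEK293 cells (4000/well) in DMEM with 10% FBS exposed to compound for 20 h at 37 °C, 5% CO2. Resazurin (100 μM final) added for a further 3 h and fluorescence read at 560/590 nm. CC50 obtained from dose–response fit of percentage cytotoxicity.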

[3] = Hemolysis assay; format: cell-based
Description: (§2) For the hemolysis assays EDTA-blood was centrifuged at 800×g for 10 min, and the plasma and buffy coat were removed. The erythrocytes were washed three times and resuspended in 5% PBS, pH 7.4. The cells were then incubated with end-over-end rotation for 1 h at 37° C. in the presence of different concentrations of peptides (0, 3, 10, 30, 60 μm). 0.1% Triton X-100 (Sigma-Aldrich) served as positive control. The samples were then centrifuged at 800×g for 10 min.
(§3) The absorbance of hemoglobin release was measured at 540 nm and is expressed as % of Triton X-100-induced hemolysis. These values of triplicates were plotted with Graph Pad Prism 4 as a dose response curve and the CC50 was determined.

[4] = tested on: S. aureus ATCC 6538; assay: CFU-assay, S. aureus-cidal activity; format: cell-based, Staphylococcus aureus; details: pH 5.5, 0.25% glucose
Method in brief: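 Bactericidal CFU-assay in nutrient-deficient 10 mM sodium phosphate buffer pH 5.5 with 0.25% glucose, counting surviving colonies across twofold peptide dilutions from 300 μg/ml to 19 ng/ml. Output is minimal bactericidal concentration (e.g. MBC90, MBC100); some peptides also tested at pH 7.0.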

[5] = tested on: P. aeruginosa ATCC 10145; assay: CFU-assay, P. aeruginosa-cidal activity; format: cell-based, Pseudomonas aeruginosa; details: pH 5.5, 0.25% glucose
[6] = tested on: methicillin-resistant S. aureus strain (ATCC 43300); format: cell-based, Staphylococcus aureus
Description: Furthermore, sensitivity of a methicillin-resistant S. aureus strain (ATCC 43300) was investigated for palmitoylated CIDAMPs in a microtiter plate screening model, with incubation in Mueller-Hinton medium at 37° C. for 18 h using resazurin as a marker for cell viability.
A sample of each culture was then diluted 40-fold in fresh broth and incubated at 37° C. for 1.5-3 h. […] All the plates were covered and incubated at 37° C. for 18 h.
as §1

[7] = tested on: C. neoformans
[8] = tested on: erythrocytes; assay: Hemolysis assay; format: cell-based
Description: as §2, §3

[9] = tested on: C. albicans ATCC 928
[10] = tested on: E. coli ATCC 25922; format: cell-based, Escherichia coli; details: Mueller-Hinton medium
Description: as §1

[11] = erythrocytes, read-out: Hemolysis (CC50)

Molecule	MIC, A. baumannii ATCC 19606 ([1]; ATCC 19606, 2 h)	CC50 [2]	CC50 [3]	MBC90 [4]	MBC100 [4]	MBC90 [5]	MBC100 [5]	MIC, S. aureus ATCC 43300 ([6]; ATCC 43300, 18 h)	MIC, C. neoformans ATCC 208821 [7]	hemolytic activity (in words) [8]	HC50 [3]	MIC, A. baumannii ATCC 19606 ([1]; Mueller-Hinton medium)	MIC, C. albicans ATCC 90028 [9]	MIC, E. coli ATCC 25922 [10]	HC50 [3, 11]	MIC, S. aureus ATCC 43300 ([6]; Mueller-Hinton medium)
CCCCCCCCCCCCCCCC(=O)NCC(=O)N[C@@H](CCN)C(=O)NCC(=O)N[C@@H](CCN)C(=O)O [Pal-GDab4, Pal-GDabGDab] (HELM PEPTIDE1{[CCCCCCCCCCCCCCCC(=O)[*:2]].G.[Dab].G.[Dab]}$$$$V2.0)	≥32 µg/mL	32 µg/mL (≈ 56.1 µM)	> 100 µg/mL	4.7 µg/mL (≈ 8.23 µM)	18.75 µg/mL (≈ 32.9 µM)	2.35 µg/mL (≈ 4.12 µM)	9.38 µg/mL (≈ 16.4 µM)	≥32 µg/mL	≥16 µg/mL	–	–	–	–	–	–	–
S-Pal-LCE3C55-75: palmitoylated peptide named among those with low hemolytic activity (SHHRHFRSHQCRRQRSNSCDR; also: S-palmitoylated, Cys not given here; UniProt Q5T5A8 55-75, looked up, fragment)	–	–	–	–	–	–	–	–	–	low hemolytic activity	–	–	–	–	–	–
CCCCCCCCCCCCCCCC(=O)NCC(=O)N[C@@H](CCCNC(=N)N)C(=O)N[C@@H](CCCNC(=N)N)C(=O)NCC(=O)N[C@@H](CO)C(=O)NCC(=O)N[C@@H](CC(C)C)C(=O)NCC(=O)N[C@@H](CCCNC(=N)N)C(=O)N[C@@H](CO)C(=O)N[C@@H](CO)C(=O)N[C@@H](CO)C(=O)N[C@@H](CCCNC(=N)N)C(=O)O [Pal-HR 1-18 3H3R-GR13] (HELM PEPTIDE1{[CCCCCCCCCCCCCCCC(=O)[*:2]].G.R.R.G.S.G.L.G.R.S.S.S.R}$$$$V2.0)	≥16 µg/mL	> 32 µg/mL	–	–	–	–	–	≥16 µg/mL	≥16 µg/mL	low hemolytic activity	> 300 µg/mL	–	–	–	–	–
CCCCCCCCCCCCCCCC(=O)N[C@@H](CCCNC(=N)N)C(=O)NCC(=O)N[C@@H](CO)C(=O)N[C@@H](CCCNC(=N)N)C(=O)N[C@@H](CO)C(=O)NCC(=O)N[C@@H](CCC(N)=O)C(=O)N[C@@H](CO)C(=O)N[C@@H](CO)C(=O)N[C@@H](CCCNC(=N)N)C(=O)NCC(=O)N[C@@H](CCC(=O)O)C(=O)N[C@@H](CCCNC(=N)N)C(=O)N[C@@H](CCCNC(=N)N)C(=O)NCC(=O)N[C@@H](CO)C(=O)N[C@@H](CO)C(=O)N[C@@H](CO)C(=O)NCC(=O)N[C@@H](CO)C(=O)N[C@@H](CO)C(=O)N[C@@H](CO)C(=O)N[C@@H](CCCNC(=N)N)C(=O)O [Pal-HR 1-11 3H3R] (HELM PEPTIDE1{[CCCCCCCCCCCCCCCC(=O)[*:2]].R.G.S.R.S.G.Q.S.S.R.G.E.R.R.G.S.S.S.G.S.S.S.R}$$$$V2.0)	–	> 32 µg/mL	–	–	–	–	–	–	≥32 µg/mL	–	–	≥8 µg/mL	≥32 µg/mL	≥32 µg/mL	> 300 µg/mL	>32 µg/mL
CCCCCCCCCCCCCCCC(=O)N[C@@H](CCCNC(=N)N)C(=O)NCC(=O)N[C@@H](CO)C(=O)N[C@@H](CCCNC(=N)N)C(=O)N[C@@H](CO)C(=O)NCC(=O)N[C@@H](CCC(N)=O)C(=O)N[C@@H](CO)C(=O)N[C@@H](CO)C(=O)N[C@@H](CCCNC(=N)N)C(=O)NCC(=O)N[C@@H](CCC(=O)O)C(=O)N[C@@H](CCCNC(=N)N)C(=O)N[C@@H](CCCNC(=N)N)C(=O)O [Pal-HR 1-11 2H2R-14] (HELM PEPTIDE1{[CCCCCCCCCCCCCCCC(=O)[*:2]].R.G.S.R.S.G.Q.S.S.R.G.E.R.R}$$$$V2.0)	–	> 32 µg/mL	–	–	–	–	–	–	≥8 µg/mL	–	–	≥4 µg/mL	–	≥8 µg/mL	> 300 µg/mL	≥8 µg/mL
